The target of the test is Replicase polyprotein 1ab (Severe acute respiratory syndrome coronavirus 2) (UniProt P0DTD1).
[1] abbreviates: Concentration 99.5 uM, Number of replicates 2.0, Standard deviation 0.232 %.

Description: Functional biochemical assay to identify treatments for viral infectious disease that targets SARS-COV-2 nsp3 macrodomain, whereby the mechanism of action displaces an ADP-Ribose modified peptide from the binding site. Utilizing a time-resolved fluorescence method to measure binding by reading the emitted fluorescence intensity in two wavelengths.

What is called inhibition is the change of the read-out against control, counted positive when it falls. As for `CCn1cc(CNC(=O)c2ccc(NC(=O)Nc3ccccc3)cc2)cn1`, the inhibition was -1.76% (Concentration 49.75 uM, Number of replicates 2.0, Standard deviation 1.767 %) and 3.8% (Concentration 99.5 uM, Number of replicates 2.0, Standard deviation 3.239 %). As for `Cn1cc(NC(=O)c2ccc(NC(=O)Nc3ccccc3)cc2)c(C#N)n1`, the inhibition (Concentration 49.75 uM, Number of replicates 2.0, Standard deviation 0.991 %) was 2.49% and the inhibition (Concentration 99.5 uM, Number of replicates 2.0, Standard deviation 1.521 %) was -0.539%. Take `CC(C)[C@@H](Nc1ncnc2[nH]ccc12)C(=O)N(C)Cc1nnc2n1CCC2`: the inhibition is -8.89% (Concentration 49.75 uM, Number of replicates 2.0, Standard deviation 4.689 %) and -6.14% (Concentration 99.5 uM, Number of replicates 2.0, Standard deviation 1.151 %). Take `O=C(O)c1cscc1C(=O)N1CCC(c2ccn3ncc(C(=O)N4CCCCC4)c3c2)CC1`: the inhibition reads like this: (Concentration 50.0 uM, Number of replicates 2.0, Standard deviation 2.729 %) 47.7%; (Concentration 100.0 uM, Number of replicates 2.0, Standard deviation 0.311 %) 66.7%. Take `CO[C@@H]1CCCN(C(=O)c2cnn3ccc(C4CCN(C(=O)c5ccccc5)CC4)cc23)C1`: the inhibition runs as follows: (Concentration 49.75 uM, Number of replicates 2.0, Standard deviation 1.69 %) 22.6%; (Concentration 99.5 uM, Number of replicates 2.0, Standard deviation 3.272 %) 39.8%. Regarding `O=C1CC[C@H](COC(=O)c2ncnc3[nH]ccc23)CCN1`, the inhibition (Concentration 50.0 uM, Number of replicates 2.0, Standard deviation 3.465 %) was -7.87%.

Regarding `O=C(OCc1ccc(Cl)nc1)c1ncnc2[nH]ccc12`, the inhibition (Concentration 50.0 uM, Number of replicates 2.0, Standard deviation 1.988 %) turned out to be 6.08%.

Consider `COc1ccccc1CN(C[C@@H]1CCCO1)c1ncnc2[nH]ccc12`, for which, under “Concentration 50.0 uM, Number of replicates 2.0, Standard deviation 1.448 %”, the inhibition stood at 4.74%. `O=C(Nc1ccccc1)Nc1ccc(C(=O)Nc2cnnc(Cl)c2)cc1`: the inhibition (Concentration 49.75 uM, Number of replicates 2.0, Standard deviation 1.096 %) was -1.72% and the inhibition (Concentration 99.5 uM, Number of replicates 2.0, Standard deviation 2.694 %) is -0.19%.

As to `Oc1cc(CNc2ncnc3[nH]cnc23)ccn1`, the inhibition is -0.821% (Concentration 50.0 uM, Number of replicates 2.0, Standard deviation 4.588 %) and -3.73% (Concentration 100.0 uM, Number of replicates 2.0, Standard deviation 5.781 %).

Take `Cc1noc([C@@H]2CCCN(c3ncnc4[nH]ccc34)C2)n1`: the inhibition (Concentration 50.0 uM, Number of replicates 2.0, Standard deviation 1.725 %) is 1.92%.

`CC(C)[C@@H](CCN(C)C(=O)c1cc2c(s1)CC[C@H](C)C2)Nc1ncnc2[nH]ccc12`: under “Concentration 49.75 uM, Number of replicates 2.0, Standard deviation 6.617 %”, the inhibition is -9.68%. With `CC(C)(CCNc1ncnc2[nH]ccc12)S(C)(=O)=O`, the inhibition (Concentration 50.0 uM, Number of replicates 2.0, Standard deviation 3.874 %) is 0.75%.

For `O=C(CCN(Cc1cccc(Cl)c1)C(=O)[C@H]1C[C@H](O)C1)N1CCNCC1`, the inhibition (Concentration 49.75 uM, Number of replicates 2.0, Standard deviation 2.648 %) was -2.13% and the inhibition (Concentration 99.5 uM, Number of replicates 2.0, Standard deviation 5.781 %) was -3.77%. As to `O=C(NCCn1cncn1)c1cnn2ccc(C3CCN(C(=O)c4ccccc4)CC3)cc12`, the inhibition was -3.7% (Concentration 49.75 uM, Number of replicates 2.0, Standard deviation 1.365 %) and -2.57% (Concentration 99.5 uM, Number of replicates 2.0, Standard deviation 1.7 %). `O=C(Nc1ccccc1)Nc1ccc(C(=O)Nc2ncccc2F)cc1`: the inhibition runs as follows: (Concentration 49.75 uM, Number of replicates 2.0, Standard deviation 1.252 %) 4.59%; (Concentration 99.5 uM, Number of replicates 2.0, Standard deviation 5.725 %) 10.2%. On to `O=C(c1nnn[nH]1)N1CCC(c2ccn3ncc(C(=O)N4CCCCC4)c3c2)CC1`, for which the inhibition (Concentration 49.75 uM, Number of replicates 2.0, Standard deviation 0.79 %) amounted to 55.1% and the inhibition under setting [1] came out at 69%.

As to `COC[C@@H](Nc1ncnc2nc[nH]c12)c1ccc(C)o1`, the inhibition was -4.64% (Concentration 49.75 uM, Number of replicates 2.0, Standard deviation 2.621 %) and 3.94% (Concentration 99.5 uM, Number of replicates 2.0, Standard deviation 0.049 %). On to `O=C(O)c1cnc(C(=O)N2CCC(c3ccn4ncc(C(=O)N5CCCCC5)c4c3)CC2)cn1`, for which the inhibition by setting is: (Concentration 49.75 uM, Number of replicates 2.0, Standard deviation 0.482 %) 27.5%; (Concentration 99.5 uM, Number of replicates 2.0, Standard deviation 1.164 %) 46.4%. Consider `Cc1ncc(C(=O)N(CCC(=O)N2CCNCC2)Cc2cccc(Cl)c2)cc1N`, for which the inhibition is 1.35% (Concentration 49.75 uM, Number of replicates 2.0, Standard deviation 3.028 %) and 1.3% (Concentration 99.5 uM, Number of replicates 2.0, Standard deviation 0.599 %). Turning to `FC(F)(F)c1nnc2n1CCN(c1ncnc3[nH]ccc13)C2`, the inhibition is -1.97% (Concentration 49.75 uM, Number of replicates 2.0, Standard deviation 1.459 %) and -1% (Concentration 99.5 uM, Number of replicates 2.0, Standard deviation 0.538 %).

In the case of `Cn1c(C(=O)N(CCC(=O)N2CCNCC2)Cc2cccc(Cl)c2)cnc1O`, the inhibition is -4.76% (Concentration 49.75 uM, Number of replicates 2.0, Standard deviation 0.601 %) and -2.76% (Concentration 99.5 uM, Number of replicates 2.0, Standard deviation 2.256 %).

For `CC(C)[C@@H](CCN(C)C(=O)C1CCc2ccccc2CC1)Nc1ncnc2[nH]ccc12`, under “Concentration 49.75 uM, Number of replicates 2.0, Standard deviation 5.252 %”, the inhibition is -5.62%. With `NS(=O)(=O)N1CCCN(c2ncnc3[nH]c(I)cc23)CC1`, the inhibition (Concentration 50.0 uM, Number of replicates 2.0, Standard deviation 1.583 %) is 2.29%. In the case of `O=C(CCN(Cc1cccc(Cl)c1)C(=O)[C@H]1CCOC1)N1CCNCC1`, the inhibition (Concentration 49.75 uM, Number of replicates 2.0, Standard deviation 12.724 %) was determined as 4.08% and the inhibition (Concentration 99.5 uM, Number of replicates 2.0, Standard deviation 2.436 %) was -3.96%. In the case of `O=C(c1c[nH]c(=O)cn1)N1CCC(c2ccn3ncc(C(=O)N4CCCCC4)c3c2)CC1`, the inhibition (Concentration 99.5 uM, Number of replicates 2.0, Standard deviation 1.433 %) is 45.8%.

Regarding `O=C(OCc1ncccc1Cl)c1ncnc2[nH]ccc12`, the inhibition (Concentration 50.0 uM, Number of replicates 2.0, Standard deviation 2.408 %) was found to be 5.06%. For `CC(C)c1nc([C@@H](C)Nc2ncnc3nc[nH]c23)cs1`, the inhibition was determined as 2.65% (Concentration 49.75 uM, Number of replicates 2.0, Standard deviation 2.607 %) and 3.07% under setting [1]. As for `CNC[C@@H]1CCCN1C(=O)c1cnn2ccc(C3CCN(C(=O)c4ccccc4)CC3)cc12`, the inhibition (Concentration 49.75 uM, Number of replicates 2.0, Standard deviation 1.186 %) is -1.47% and the inhibition (Concentration 99.5 uM, Number of replicates 2.0, Standard deviation 2.864 %) is -2.2%. For the molecule `CC1OCCC1(O)CNC(=O)c1ncnc2[nH]ccc12` (stereo not drawn), the inhibition (Concentration 50.0 uM, Number of replicates 2.0, Standard deviation 4.016 %) came out at 1.86%. For the molecule `Cc1cccc(Cl)c1S(=O)(=O)Nc1cnc2[nH]ncc2c1`, for the setting “Concentration 50.0 uM, Number of replicates 2.0, Standard deviation 1.912 %”, the inhibition is -0.254%. Regarding `Fc1ccc(F)c(Sc2ncnc3[nH]ccc23)c1`, for the setting “Concentration 50.0 uM, Number of replicates 2.0, Standard deviation 6.588 %”, the inhibition was -1.15%. For `Cc1cnc(CCNc2ncnc3[nH]ncc23)c(C)c1`, where the note is “Concentration 50.0 uM, Number of replicates 2.0, Standard deviation 4.479 %”, the inhibition was 4.34%. Consider `O=C(CCCc1cccnc1)Nc1cnc2[nH]ncc2c1`, for which the inhibition (Concentration 50.0 uM, Number of replicates 2.0, Standard deviation 5.838 %) was -3.65%. For the molecule `CN1CCC[C@@H]1CNC(=O)c1cnn2ccc(C3CCN(C(=O)c4ccccc4)CC3)cc12`, the inhibition is -4.43% (Concentration 49.75 uM, Number of replicates 2.0, Standard deviation 1.011 %) and 1.5% (Concentration 99.5 uM, Number of replicates 2.0, Standard deviation 3.797 %). On to `Cn1cc([C@@H](Nc2ncnc3[nH]ccc23)c2ccccc2)cn1`, for which the inhibition (Concentration 49.75 uM, Number of replicates 2.0, Standard deviation 1.638 %) was 20% and the inhibition (Concentration 99.5 uM, Number of replicates 2.0, Standard deviation 1.226 %) came to 39.3%. As to `Cc1nc(C(=O)N2CCC(c3ccn4ncc(C(=O)N5CCCCC5)c4c3)CC2)c(=O)[nH]c1C`, the inhibition came to 26.4% (Concentration 49.75 uM, Number of replicates 2.0, Standard deviation 2.437 %) and 44.2% (Concentration 99.5 uM, Number of replicates 2.0, Standard deviation 0.005 %).

As to `CC(C)NC(=O)[C@@H]1CCCN(c2ncnc3[nH]ccc23)C1`, for the setting “Concentration 50.0 uM, Number of replicates 2.0, Standard deviation 0.005 %”, the inhibition is 1.78%. As for `CC(C)OCCNC(=O)c1cc2c(=O)n3ccccc3nc2n1C`, the inhibition (Concentration 50.0 uM, Number of replicates 2.0, Standard deviation 4.259 %) was found to be 14%. Regarding `Cc1[nH]nc(C(=O)N2CCC(c3ccn4ncc(C(=O)N5CCCCC5)c4c3)CC2)c1C`, the inhibition runs as follows: (Concentration 49.75 uM, Number of replicates 2.0, Standard deviation 4.553 %) 18%; (Concentration 99.5 uM, Number of replicates 2.0, Standard deviation 2.151 %) 33.8%.

For the molecule `O=C(O)c1sccc1C(=O)N1CCC(c2ccn3ncc(C(=O)N4CCCCC4)c3c2)CC1`, the inhibition runs as follows: (Concentration 49.75 uM, Number of replicates 2.0, Standard deviation 1.624 %) 55.5%; (Concentration 99.5 uM, Number of replicates 2.0, Standard deviation 1.425 %) 71.5%.

`O=C(Cc1ccc(F)cc1)Nc1ccc2[nH]ncc2c1`: the inhibition (Concentration 50.0 uM, Number of replicates 2.0, Standard deviation 1.625 %) was 1.14%. Consider `c1nc(N[C@@H]2CCCc3c2cnn3C2CCCC2)c2cc[nH]c2n1`, for which the inhibition (Concentration 49.75 uM, Number of replicates 2.0, Standard deviation 0.354 %) worked out at 0.884% and the inhibition (Concentration 99.5 uM, Number of replicates 2.0, Standard deviation 0.15 %) was 14.3%. In the case of `O=C1CC[C@@H](CNC(=O)c2cnn3ccc(C4CCN(C(=O)c5ccccc5)CC4)cc23)N1`, the inhibition was -2.32% (Concentration 49.75 uM, Number of replicates 2.0, Standard deviation 1.276 %) and -1.47% (Concentration 99.5 uM, Number of replicates 2.0, Standard deviation 4.674 %). Regarding `Cc1ncc(NCc2cc3n(n2)CCOC3)cc1C(N)=O`, the inhibition (Concentration 50.0 uM, Number of replicates 2.0, Standard deviation 4.482 %) was found to be 0.46%. For `Cn1cnc(C(=O)N(CCC(=O)N2CCNCC2)Cc2cccc(Cl)c2)n1`, the inhibition was -1.44% (Concentration 49.75 uM, Number of replicates 2.0, Standard deviation 2.331 %) and -0.25% (Concentration 99.5 uM, Number of replicates 2.0, Standard deviation 4.384 %).

(Values after ChEMBL document CHEMBL5442379, “ASAP - SARS-CoV-2 nsp3 macrodomain single point” (2024).)
